Test [1] has as its target GSK 3α (Homo sapiens (Human), UniProt P49840). Kind of test: GSK 3α enzyme inhibition (FRET, Z-LYTE; Method 2). Format: biochemical. The conditions noted are these: read-out: IC50 Values for Enzyme Inhibition GSK3α. Summed up: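 Phosphorylation was taken from the donor (coumarin) to acceptor (fluorescein) emission ratio after 1 h protease development, which cleaves only unphosphorylated peptide. Before that, peptide (8 μM stock) plus ATP (40 μM stock) reacted 1 h. This followed a 105 min RT preincubation of GSK3-α with compound stocks of 10–0.01 μg/mL.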

The subject of test [2] is PBMCs. Description: LPS-induced TNFα/IL-8 release in PBMC cells (assay b). The format is cell-based, human. The note with it: LPS-stimulated, read-out: IC50 Values for Inhibition of Cytokine Release PBMCs IL-8. As for the experimental part: Peripheral blood mononuclear cells (PBMCs) from healthy subjects are separated from whole blood using a density gradient (Lymphoprep, Axis-Shield Healthcare). The PBMCs are seeded in 96 well plates and treated with compounds at the desired concentration for 2 hours before addition of 1 ng/mL LPS (Escherichia Coli 0111:B4 from Sigma Aldrich) for 24 hours under normal tissue culture conditions (37° C., 5% CO2). The supernatant is harvested for determination of IL-8 and TNFα concentrations by sandwich ELISA (Duo-set, R&D systems) and read on the fluorescence microplate reader (Varioskan® Flash, ThermoFisher Scientific).

Like-named read-outs stand apart in the source and are kept apart here.

GSK 3α, sequence (P49840 whole entry): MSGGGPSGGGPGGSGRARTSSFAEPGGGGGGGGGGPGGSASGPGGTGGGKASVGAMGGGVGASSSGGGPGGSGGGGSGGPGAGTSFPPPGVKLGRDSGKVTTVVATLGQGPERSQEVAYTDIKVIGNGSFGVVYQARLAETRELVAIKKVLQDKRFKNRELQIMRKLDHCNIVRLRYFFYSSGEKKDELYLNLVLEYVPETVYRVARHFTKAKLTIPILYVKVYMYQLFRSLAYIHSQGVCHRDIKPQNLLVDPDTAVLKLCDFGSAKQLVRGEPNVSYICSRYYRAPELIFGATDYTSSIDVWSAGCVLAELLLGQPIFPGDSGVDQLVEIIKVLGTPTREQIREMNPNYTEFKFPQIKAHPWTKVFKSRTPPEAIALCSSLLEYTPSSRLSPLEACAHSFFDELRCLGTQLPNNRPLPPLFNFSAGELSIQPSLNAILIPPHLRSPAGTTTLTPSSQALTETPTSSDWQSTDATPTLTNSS

What is called IC50 is the midpoint of a concentration-inhibition curve. As for `COc1c(NC(=O)Nc2ccc(Oc3ccnc(Nc4ccccc4)c3)c3ccccc23)cc(C(C)(C)C)cc1C(=O)N[C@H]1CCOC1` [84(d), 3-[[4-[(2-Anilino-4-pyridyl)oxy]-1-naphthyl]carbamoylamino]-5-tert-butyl-2-methoxy-N-[(3S)-tetrahydrofuran-3-yl]benzamide], the IC50 in test [1] came out at 6280 nM; in test [2] (Homo sapiens, PBMC) it was 11.5 nM.

Take `COCCOCCOCCOCCNC(=O)c1cc(Nc2cc(Oc3ccc(NC(=O)Nc4cc(C(C)(C)C)cc(NS(C)(=O)=O)c4OC)c4ccccc34)ccn2)cc(OC)c1` [Example 85(v), 3-[[4-[[4-[[5-tert-Butyl-3-(methanesulfonamido)-2-methoxyphenyl]-carbamoylamino]-1-naphthyl]oxy]-2-pyridyl]amino]-5-methoxy-N-[2-[2-[2-(2-methoxyethoxy)ethoxy]ethoxy]-ethyl]benzamide]: the figures for the IC50 in test [1] and in test [2] were 2520 nM and 0.4 nM, respectively.

The values are drawn from US9481648B2, “Kinase inhibitors” (Respivert Limited, priority 2013, dated 2016).
